Reference: ChEMBL document CHEMBL4414614, “Phthalideisoquinoline Hemiacetal Alkaloids from Corydalis decumbens That Inhibit Spontaneous Calcium Oscillations, Including Alkyl Derivatives of (+)-Egenine That Are Strikingly Levorotatory” (J Nat Prod, 2019)

What was measured:
Format in all cases: functional
[1] = (§1) Inhibition of neuronal excitability in C57BL/6 mouse Neocortical neurons assessed as effect on spontaneous calcium oscillation frequency measured for 10 mins by Fluo-4 staining based FLIPR assay; conditions: C57BL/6, 10 min
[2] = species: Mus musculus; experiment: as §1
[3] = (§2) Inhibition of neuronal excitability in C57BL/6 mouse Neocortical neurons assessed as reduction in spontaneous calcium oscillation amplitude measured for 10 mins by Fluo-4 staining based FLIPR assay; conditions: C57BL/6, 10 min
[4] = species: Mus musculus; experiment: as §2

IC50 [1] [µM]	IC50 [3] [µM]	Compound	inhibition [2]	inhibition [4]
11.6	11.6	COc1cc2c(cc1OC)[C@@H]([C@@H]1O[C@H](O)c3c1ccc1c3OCO1)N(C)CC2	Dose-dependent effect	Dose-dependent effect
8.3	8.3	CCO[C@H]1O[C@@H]([C@@H]2c3cc4c(cc3CCN2C)OCO4)c2ccc3c(c21)OCO3	Dose-dependent effect	Dose-dependent effect
10.2	10.2	CCO[C@@H]1O[C@@H]([C@@H]2c3cc(OC)c(OC)cc3CCN2C)c2ccc3c(c21)OCO3	Dose-dependent effect	Dose-dependent effect
3.1	3.1	CCO[C@@H]1O[C@@H]([C@@H]2c3cc4c(cc3CCN2C)OCO4)c2ccc3c(c21)OCO3	Dose-dependent effect	Dose-dependent effect

Compound	IC50 [1] [µM]	IC50 [3] [µM]	inhibition [2]	inhibition [4]
CO[C@H]1O[C@@H]([C@@H]2c3cc4c(cc3CCN2C)OCO4)c2ccc3c(c21)OCO3	6.8	6.8	Dose-dependent effect	Dose-dependent effect
CO[C@@H]1O[C@@H]([C@@H]2c3cc4c(cc3CCN2C)OCO4)c2ccc3c(c21)OCO3	5.6	5.6	Dose-dependent effect	Dose-dependent effect
